Series [1] can be described thus: CaCo-2 permeability (bi-directional). The note with it: human. As to the method: Caco-2 cells obtained from the ATCC were used between passage numbers 40—60. Cells were seeded onto Millipore Multiscreen Transwell plates at 1 × 10^5 cells/cm^2. The cells were cultured in DMEM and media was changed every two or three days. On day 20, the permeability study was performed. […] Cells were then incubated with HBSS at the desired pH in both apical and basolateral compartments for 40 min to stabilize physiological parameters.
The fluorescent integrity marker lucifer yellow was also included in the dosing solution. Analytical standards were prepared from test compound DMSO dilutions and transferred to buffer, maintaining a 1% v/v DMSO concentration.
For assessment of A-B permeability, HBSS was removed from the apical compartment and replaced with test compound dosing solution. The apical compartment insert was then placed into a companion plate containing fresh buffer (containing 1% v/v DMSO). For assessment of B-A permeability, HBSS was removed from the companion plate and replaced with test compound dosing solution. Fresh buffer (containing 1% v/v DMSO) was added to the apical compartment insert, which was then placed into the companion plate.
Compound permeability was assessed in duplicate. Compounds of known permeability characteristics were run as controls on each assay plate.
Test and control compounds were quantified by LC–MS/MS cassette analysis using a 7-point calibration with appropriate dilution of the samples. The starting concentration (C0) was determined from the dosing solution and the experimental recovery calculated from C0 and both apical and basolateral compartment concentrations. The integrity of the monolayer throughout the experiment was checked by monitoring lucifer yellow permeation using fluorimetric analysis.
The permeability coefficient (Papp) for each compound was calculated from the following equation: Papp=dQ/dtC0×A where dQ/dt was the rate of permeation of the drug across the cells, C0 was the donor compartment concentration at time zero and A was the area of the cell monolayer. C0 was obtained from analysis of the dosing solution.
Efflux ratio (ER) was calculated from mean A-B and B-A data. This was derived from: ER=Papp(B-A)Papp(A-B)

Series [2] deals with HepG2 human hepatocellular carcinoma cells. The series is described as follows: Cell viability (cytotoxicity, MTT) using HepG2. In kind it is cell-based. As to conditions: for MTT (AC50) Conc at which 50% of maximum efficacy is reached / MTT (MEC) Minimum effective concentration: 72 h, summary sheet. As for the experimental part: HepG2 human hepatocellular carcinoma cells were plated on 96-well tissue culture polystyrene plates for 24 h prior to dosing of the cells. The shortlisted hits were diluted in DMSO and serial dilutions are made 1% DMSO in growth media. Compounds at 8 concentrations in triplicate was then incubated for 72 h. Appropriate blanks and controls were run alongside the assay. One h prior to the end of the incubation period, the cells were loaded with MTT [yellow; 3-(4,5-dimethyl-2-thiazolyl)-2,5-diphenyl-2H-tetrazolium bromide], the plates were dried and re-solubilized using DMSO. The plates were then scanned at 570 nm using a plate reader.
The minimum effective concentration was determined from the lowest concentration whose mean value exceeds the significance level, provided either a clear dose–response relationship was observed, or at least two consecutive concentration points were above the significance level.

Series [3] can be described thus: Microsomal metabolic stability. In kind it is in vitro ADME. As to conditions: human, pooled liver microsomes; for half-life at 1 µM: pH 7.4, liver microsomes; for microsomal CLint at 1 µM: pH 7.4, read-out: Metabolic stability - Intrinsic clearance (CI). As for the experimental part: Pooled liver microsomes were purchased from Xenotech (H0500) and were stored according to manufacturer’s instructions prior to use. […] A minus co-factor control incubation was included for each compound tested where 0.1 M phosphate buffer pH 7.4 was added instead of NADPH. Two control compounds were included with each species. All incubations were performed singularly for each shortlisted hit. Each compound was incubated for 0, 5, 15, 30 and 45 min. The minus co-factor was incubated for 45 min only. The reactions were stopped by transferring incubate into acetonitrile at the appropriate time points in a 1:3 ratio. The termination plates were centrifuged at 3000 rpm for 20 min at 4 °C to precipitate the protein. Following protein precipitation, the supernatant were combined in cassette of up to 4 compounds, internal standard for MS analysis was added and samples were analyzed using LC–MS/MS. From a plot of In peak area ratio (compound peak area/internal standard peak area) against time, the gradient of the lines were determined. Subsequently, half-life and intrinsic clearance were calculated using the following equations. Eliminationrateconstant(k)=(-gradient)Half-life(t1/2)(min)=0.693/kIntrinsicclearance(CLint)(μl/min/mgprotein)=Vx0.693/t1/2 where V = Incubation volume (µl) / Microsomal protein (mg)

A short description of series [4]: Semi-thermodynamic solubility. In kind it is physicochemical. The note with it: for solubility / solubility thermodynamic: PBS, aqueous buffer, thermodynamic from solid; for solubility: Room Temp, Overnight, LC-MSMS; for solubility thermodynamic: overnight; for solubility thermodynamic / Solubility (class in words): summary sheet. As for the experimental part: In vitro ADME-T assays were performed by Cyprotex (Cyprotex Discovery, Cheshire, UK). […] The solution was agitated at ambient temperature overnight. The solutions were then centrifuged for 30 min at 3000 rpm at RT. The supernatant was removed and centrifuged for a further 30 min under the same conditions. An aliquot of the resulting supernatant was diluted in 50% methanol in water (containing an internal standard for MS analysis) prior to analysis by LC–MS/MS. […] These stocks were diluted in 50% methanol in water (containing an internal standard for MS analysis) prior to analysis by LC–MS/MS. The solubility of the shortlisted hits was calculated from a linear or quadratic fit of the standard curve.

The next series relates to DAOY cells. The series is described as follows: Spheroid invasion assay (SIA), bFGF-induced collagen I invasion. In kind it is cell-based, human. The note with it: for EC50: DAOY cells, n = 3 technical replicas, read-out: EC50 for the inhibition of bFGF-induced collagen I invasion; for functional activity in SIA (result in words): DAOY, bFGF-induced, 1, 5 and 10 µM. The method in brief: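 Spheroids formed over 24–72 h were embedded in collagen I (final 1.75 mg/ml) and stimulated with bFGF (100 ng/ml unless stated), HGF 30 ng/ml or EGF 20 ng/ml with compound in DMSO. Invasion distance was quantified 24–48 h after embedding.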

Where [5] appears, read: Caco-2, Mean Papp A-B, Caco-2, summary sheet.
Where [6] appears, read: Caco-2, Mean Papp B-A, Caco-2, summary sheet.
[7] abbreviates: Caco-2, pH 7.4, Mean % Recovery A2B, HBSS/HBSS, pH 7.4/7.4.
Setting [8] is: Caco-2, pH 7.4, Mean % Recovery B2A, HBSS/HBSS, pH 7.4/7.4.
Setting [9] is: Caco-2, pH 7.4, Mean Papp A2B, HBSS/HBSS, pH 7.4/7.4.
Setting [10] is: Caco-2, pH 7.4, Mean Papp B2A, HBSS/HBSS, pH 7.4/7.4.
Setting [11] is: Caco-2, pH 7.4, Papp A2B Replicate 1, HBSS/HBSS, pH 7.4/7.4.
Setting [12] is: Caco-2, pH 7.4, Papp A2B Replicate 2, HBSS/HBSS, pH 7.4/7.4.
[13] abbreviates: Caco-2, pH 7.4, Papp B2A Replicate 1, HBSS/HBSS, pH 7.4/7.4.
The mark [14] stands for this setting: Caco-2, pH 7.4, Papp B2A Replicate 2, HBSS/HBSS, pH 7.4/7.4.
The mark [15] stands for this setting: read-out: Solubility Replicate 1.
[16] abbreviates: read-out: Solubility Replicate 2.
[17] abbreviates: read-out: Solubility Replicate 3.
[18] abbreviates: read-out: Solubility Replicate 4.

Where two headings read alike, the source gives them in different places.

Take `CC(C)C[C@@H](CO)NCc1cc(O)c2cc(F)ccc2n1` [Compound 3.14]: the efflux ratio at 120 min, 10 μM in series [1] (Caco-2) was found to be 8.64; in series [1] (Caco-2, pH 7.4), 8.64. Further, the Papp A→B at 120 min, 10 μM is 4.7 ×10⁻⁶ cm/s in series [1] (setting [5]), 4.7 ×10⁻⁶ cm/s in series [1] (setting [9]), 4.69 ×10⁻⁶ cm/s in series [1] (setting [11]) and 4.71 ×10⁻⁶ cm/s in series [1] (setting [12]). Moreover, the Papp B→A at 120 min, 10 μM in series [1] (setting [6]) stood at 40.6 ×10⁻⁶ cm/s; in series [1] (setting [10]), 40.6 ×10⁻⁶ cm/s; in series [1] (setting [13]), 40 ×10⁻⁶ cm/s; in series [1] (setting [14]), 41.2 ×10⁻⁶ cm/s. Further, the recovery at 120 min, 10 µM was 70.2% in series [1] (setting [7]) and 73.4% in series [1] (setting [8]). Besides, in series [2], the “toxicity in the MTT assay (result in words)” value was “no toxicity”. Further, the “MTT (AC50) Conc at which 50% of maximum efficacy is reached” value in series [2] is listed as “No response”. For the same molecule, the “MTT (MEC) Minimum effective concentration” value in series [2] is “No response”. Besides, the half-life at 1 µM in series [3] (read-out: t1/2) turned out to be 29.1 min; in series [3] (read-out: t1/2 of clearance (CL1/2), in vitro) it was 29 min. The microsomal CLint at 1 µM in series [3] amounted to 47.6 µL/min/mg. Moreover, the solubility in series [4] (read-out: Mean Solubility), in series [4] (setting [15]), in series [4] (setting [16]), in series [4] (setting [17]) and in series [4] (setting [18]) was more than 100 µM throughout. Further, in series [4] (Supplementary Table 2), the “solubility (result in words)” value is reported as “freely soluble”. The same molecule displayed a thermodynamic solubility in series [4] of more than 100 µM. Moreover, the “Solubility (class in words)” value in series [4] is “Freely”. Besides, the half-maximal effective concentration (EC50) in the series on DAOY cells worked out at 5.92 µM; in the series with DAOY cells (Homo sapiens, Daoy), 5.92 µM.
`O=[N+]([O-])c1c(Cl)cc(O)c2c1C1C=CCC1C(c1ccc(Cl)cc1Cl)N2` (stereo not drawn) [Compound 8]: the Papp B→A at 120 min, 10 μM was determined as 7.05 ×10⁻⁶ cm/s in series [1] (setting [6]), 7.05 ×10⁻⁶ cm/s in series [1] (setting [10]), 7.14 ×10⁻⁶ cm/s in series [1] (setting [13]) and 6.96 ×10⁻⁶ cm/s in series [1] (setting [14]). The values for the recovery at 120 min, 10 µM in series [1] (setting [7]) and in series [1] (setting [8]) were 32.1% and 33.3%, respectively. Moreover, in series [2] (72h, 3 replicas, NR = No response (Summary sheet)), the MEC was 6.79 µM. In series [2], the “MTT (MEC) Minimum effective concentration” value is 6.79 µM. In addition, the half-life at 1 µM in series [3] (read-out: t1/2) is 3.35 min. For the same molecule, the microsomal CLint at 1 µM in series [3] came to 414 µL/min/mg. The solubility in series [4] (read-out: Mean Solubility), in series [4] (setting [15]), in series [4] (setting [17]) and in series [4] (setting [18]) was more than 100 µM each time. In addition, the thermodynamic solubility in series [4] is more than 100 µM. In addition, in series [4], the “Solubility (class in words)” value is reported as “Freely”. Also, the “functional activity in SIA (result in words)” value in the series on DAOY cells is “invasion inhibition only at the highest concentration”.
Turning to `O=C(O)c1c(Cl)cc(O)c2c1C1C=CCC1C(c1ccc(Cl)cc1)N2` (stereo not drawn) [Compound 13], the efflux ratio at 120 min, 10 μM turned out to be 1.5 in series [1] (Caco-2) and 1.5 in series [1] (Caco-2, pH 7.4). Also, the Papp A→B at 120 min, 10 μM is 1.94 ×10⁻⁶ cm/s in series [1] (setting [5]), 1.94 ×10⁻⁶ cm/s in series [1] (setting [9]), 1.02 ×10⁻⁶ cm/s in series [1] (setting [11]) and 2.86 ×10⁻⁶ cm/s in series [1] (setting [12]). For the same molecule, the Papp B→A at 120 min, 10 μM is 2.91 ×10⁻⁶ cm/s in series [1] (setting [6]), 2.91 ×10⁻⁶ cm/s in series [1] (setting [10]), 2.62 ×10⁻⁶ cm/s in series [1] (setting [13]) and 3.2 ×10⁻⁶ cm/s in series [1] (setting [14]). Also, the recovery at 120 min, 10 µM in series [1] (setting [7]) stood at 86.6%; in series [1] (setting [8]), 85%. The “MTT (AC50) Conc at which 50% of maximum efficacy is reached” value in series [2] is recorded as “No response”. Besides, in series [2], the “MTT (MEC) Minimum effective concentration” value is “No response”. The half-life at 1 µM in series [3] (read-out: t1/2) was determined as 83 min. Also, in series [3], the microsomal CLint at 1 µM came out at 16.7 µL/min/mg. Further, the solubility in series [4] (read-out: Mean Solubility), in series [4] (setting [15]), in series [4] (setting [16]), in series [4] (setting [17]) and in series [4] (setting [18]) was more than 100 µM each time. This molecule also came in with a thermodynamic solubility in series [4] of more than 100 µM. Also, the “Solubility (class in words)” value in series [4] is given as “Freely”. Also, the “functional activity in SIA (result in words)” value in the series on DAOY cells is given as “mild but dose-depended reduction”.

These data come from publication PMC10060354, “Discovery of a small molecule ligand of FRS2 that inhibits invasion and tumor growth” (Cellular Oncology, 2022).
